# Read-outs that look alike come from different tables or passages of the source.
# Key:
# V-H+-ATPase = tested on: T1, V-H+-ATPase; details: ATP 0.05-1.5 mM, […] MgCl2, 100 mM KCl, MOPS-TRIS pH 7.0, 22 °C; control plants (10 mM NaCl); corrected for vesicle orientation
# T1 construct: gene VHA-A
# Method: ATP-dependent H+ transport, ACMA fluorescence quenching, Michaelis-Menten fit on V-H+-ATPase | Kinetic analysis was performed by fitting a Michaelis–Menten curve through the data points
# V-H+-PPase = tested on: T2, V-H+-PPase; details: PPi 0.005-[…], […] MgCl2, 100 mM KCl, MOPS-TRIS pH 7.0, 22 °C, corrected for vesicle orientation
# T2 construct: gene VHP1
# Method: PPi-dependent H+ transport, ACMA fluorescence quenching, Michaelis-Menten fit on V-H+-PPase | Kinetic analysis was performed by fitting a Michaelis–Menten curve through the data points
Km (V-H+-ATPase) [µM],Km (V-H+-PPase; control plants (0 mM NaCl)) [µM],Km (V-H+-PPase; control plants (10 mM NaCl)) [µM],SMILES
250 ± 110,,,Nc1ncnc2c1ncn2[C@@H]1O[C@H](COP(=O)(O)OP(=O)(O)OP(=O)(O)O)[C@@H](O)[C@H]1O [ATP]
,43 ± 24,34 ± 14,O=P(O)(O)OP(=O)(O)O [pyrophosphate]

# — publication PMC4064249, “Differences in proton pumping and Na/H exchange at the leaf cell tonoplast between a halophyte and a glycophyte” (AoB Plants, 2014)
